Measurements taken from patent US7279499B2, “Substituted benzopyrans as selective estrogen receptor-beta agonists” (Eli Lilly and Company, priority 2004, dated 2007).

melting point [°C] | Structure (SMILES)
76 to 80 | COCc1cc(O)cc2c1O[C@@H](c1ccc(O)cc1)[C@H]1CCC[C@@H]21 [Example 1B, (3aS, 4R, 9bR)-4-(4-Hydroxy-phenyl)-6-methoxymethyl-1,2,3,3a,4,9b-hexahydro-cyclopenta[c]chromen-8-ol]
195 to 197 | OCc1cc(O)cc2c1O[C@@H](c1ccc(O)cc1)[C@H]1CCC[C@@H]21 (single isomer, unassigned) [Example 2B]
62 to 66 | CCOCc1cc(O)cc2c1O[C@@H](c1ccc(O)cc1)[C@H]1CCC[C@@H]21 (single isomer, unassigned) [Example 3B]
